Data on 106 compounds can be found in a flash point compilation (Sun et al. 2020).

Consider `C=CC=CO[Si](C)(C)C` [1-(Trimethylsiloxy)-1,3-butadiene], for which the flash point was 25.00 °C. `CCCCCC#C[Si](C)(C)C` [1-Heptynyltrimethylsilane] registered a flash point of 42.00 °C. Still for that read-out and setting: in the case of `CCCCC=C[Si](Cl)(Cl)Cl` [1-Hexenyltrichlorosilane] it was 60.00 °C; in that of `CO[Si](CCC1CCC2OC2C1)(OC)OC` (centres undefined) [2-(3,4-epoxycyclohexyl)ethyltrimethoxysilane], 146.00 °C. Same read-out and setting: in the case of `CC(CCl)C[Si](C)(Cl)Cl` (centres undefined) [3-Chloro-2-methylpropylmethyldichlorosilane] it was 90.00 °C; in that of `CO[Si](C)(CCCCl)OC` [3-Chloropropylmethyldimethoxysilane], 45.00 °C.

This is another data set of the same source.
In the case of `Nc1ccccc1` [Aniline], the flash point worked out at 70.00 °C. Consider `CCCCCCCC(=O)O` [Octanoic acid], for which the flash point was 132.00 °C. Same read-out and setting: in the case of `Cc1ccccc1` [Toluene] it was 4.40 °C.

This is another data set of the same source.
In turn, `Cc1ccc(C)c(C)c1` [1,2,4-TRIMETHYL BENZENE] had a flash point of 45.5 °C. On the same count and under the same terms, in the case of `CCc1ccccc1CC` [1,2-Diethylbenzene] it was 57.2 °C. The same measure, in the same setting: in the case of `COCCOC` [1,2-Dimethoxyethane] it was -1.6 °C; in that of `NCCN` [1,2-Ethanediamine], 38 °C; in that of `Cc1cccc(C)c1` [1,3-Dimethylbenzene], 25.0 °C. Same read-out and setting: the value for `CCc1ccc(CC)cc1` [1,4-Diethylbenzene] was 57 °C; that for `Cc1ccc(C)cc1` [1,4-Dimethylbenzene] was 26 °C. `NCCCCCCN` [1,6-Hexanediamine]: the flash point was 81.0 °C. `CCC(C)CO` (centres undefined) [1-Butanol, 2-methyl-] gave a flash point of 43.0 °C. On the same count and under the same terms, in the case of `C=CC(C)(C)C` [1-Butene, 3,3-dimethyl-] it was -31.9 °C; in that of `CCCCCCCCCCCCO` [1-DODECANOL], 125 °C; in that of `C=CCCCCCCCCCC` [1-DODECENE], 67 °C. The same measure, in the same setting: the value for `C=CCCCCCCCC` [1-Decene] was 47.0 °C; that for `C=CCCCC` [1-HEXENE] was -31 °C. On the same count and under the same terms, in the case of `CCCCCCCS` [1-Heptanethiol] it was 50.5 °C. On to `C=CCCCCC` [1-Heptene], for which the flash point is -8.0 °C. For `CCCCCCN` [1-Hexanamine], the flash point turned out to be 27.0 °C. Compound `CCCCCCS` [1-Hexanethiol] returned a flash point of 32.5 °C.

For the compound `CCCCCCCCCO` [1-NONANOL], the flash point was 95 °C. Still for that read-out and setting: in the case of `CCCCCCCCC=O` [1-Nonanal] it was 63.0 °C; in that of `CCCCCCCCCO` [1-Nonanol], 96.0 °C; in that of `C=CCCC` [1-PENTENE], -54 °C. The same measure, in the same setting: the value for `C=CCCCCCCCCCCCCC` [1-Pentadecene] was 112.0 °C; that for `CCCC(C)CO` (centres undefined) [1-Pentanol, 2-methyl-] was 50.0 °C; that for `C=CC(C)CC` (centres undefined) [1-Pentene, 3-methyl-] was -27.9 °C. Still for that read-out and setting: in the case of `CCCS` [1-Propanethiol] it was -19.9 °C; in that of `CCCCCCCCCCCO` [1-UNDECANOL], 115 °C. The compound `CCCCCCCCCCCO` [1-Undecanol] displayed a flash point of 113.0 °C.

Turning to `CCC(C)(C)C(=O)O` [2,2-Dimethylbutyric acid], the flash point is 79.0 °C.

For the compound `Cc1ccc(O)c(C)c1` [2,4-Dimethylphenol], the flash point was 95.0 °C.

The compound `Cc1cccc(C)c1O` [2,6-Dimethylphenol] returned a flash point of 85.0 °C. The same measure, in the same setting: the value for `CC(C)C(C)O` (centres undefined) [2-Butanol, 3-methyl-] was 26.0 °C. Take `CC=C(C)C` [2-Butene, 2-methyl-]: the flash point is -44.9 °C. Same read-out and setting: in the case of `CCCCC(CC)CO` (centres undefined) [2-Ethylhexanol] it was 73 °C; in that of `CCCCC(C)O` (centres undefined) [2-HEXANOL], 46.2 °C.

`CCCCCC(C)=O` [2-Heptanone] showed a flash point of 39.0 °C. Still for that read-out and setting: the value for `CCCCC(C)O` (centres undefined) [2-Hexanol] was 45.0 °C; that for `CC(C)CO` [2-Methyl-1-propanol] was 29.2 °C. Same read-out and setting: the value for `CCC(O)CC` [3-PENTANOL] was 27 °C. On the same count and under the same terms, the value for `CCC(C)(O)CC` [3-Pentanol, 3-methyl-] was 24.0 °C. For `CCC(O)CC` [3-Pentanol], the flash point was found to be 30.0 °C. The same measure, in the same setting: in the case of `CCCCCC(=O)CCCCC` [6-Undecanone] it was 88.4 °C. On the same count and under the same terms, the value for `CCCCCOC(C)=O` [Amyl acetate] was 37.0 °C; that for `Nc1ccccc1` [Aniline] was 71.0 °C. Same read-out and setting: the value for `CNc1ccccc1` [Benzenamine, N-methyl-] was 78 °C. The compound `CCCCS` [Butanethiol] came in with a flash point of 1.0 °C. `CCCCC1CCCCC1` [Cyclohexane, butyl-] returned a flash point of 52.5 °C.

`NC1CCCC1` [Cyclopentanamine] showed a flash point of 11.5 °C. Same read-out and setting: the value for `CCC1CCCC1` [Cyclopentane, ethyl-] was -0.0 °C. The same measure, in the same setting: the value for `CCCCCCCCCC(=O)O` [Decanoic acid] was 148.0 °C; that for `CC(C)NC(C)C` [Diisopropylamine] was -7.0 °C.

As to `CNC` [Dimethylamine], the flash point is -49.9 °C. Still for that read-out and setting: the value for `CCCNCCC` [Dipropylamine] was 7.5 °C; that for `CCOCCOCCO` [Ethanol, 2-(2-ethoxyethoxy)-] was 90.0 °C.

The compound `COCCO` [Ethanol, 2-methoxy-] came in with a flash point of 39.0 °C. The same measure, in the same setting: the value for `CCCCCC#N` [HEXANENITRILE] was 47 °C; that for `CCCCCC(C)C` [Heptane, 2-methyl-] was 6.0 °C; that for `CCCCC(CC)CC` [Heptane, 3-ethyl-] was 23.0 °C. The same measure, in the same setting: in the case of `CCCCCCC(=O)O` [Heptanoic acid] it was 115.0 °C. Still for that read-out and setting: the value for `CCCC(CC)CC` [Hexane, 3-ethyl-] was 5 °C; that for `CCCCCC#N` [Hexanenitrile] was 43.0 °C. `CCCCC(CC)C(=O)O` (centres undefined) [Hexanoicacid, 2-ethyl-] yielded a flash point of 110.0 °C. With `CN(C)c1ccccc1` [N,N-DIMETHYLANILINE], the flash point was 62.0 °C. Still for that read-out and setting: the value for `CN(C)c1ccccc1` [N,N-Dimethylaniline] was 75.0 °C; that for `CCCCCCC(C)CC` (centres undefined) [Nonane, 3-methyl-] was 46.0 °C.

For `CCCCCC(C)CCC` (centres undefined) [Nonane, 4-methyl-], the flash point came to 44.0 °C. On the same count and under the same terms, in the case of `CCCCC(C)CCCC` [Nonane, 5-methyl-] it was 39 °C; in that of `CCCCCCCC=O` [Octanal], 51.0 °C.

The compound `CCCCC(C)CCC` (centres undefined) [Octane, 4-methyl-] came in with a flash point of 23.0 °C.

In turn, `CCCCCCCC` [Octane] yielded a flash point of 14.0 °C. Still for that read-out and setting: in the case of `CCCCCCCC(=O)O` [Octanoic acid] it was 127.0 °C. Same read-out and setting: in the case of `Oc1ccccc1` [PHENOL] it was 80 °C. On the same count and under the same terms, the value for `CCc1ccccc1O` [Phenol, 2-ethyl-] was 85.0 °C.

`CCCOCC` [Propane, 1-ethoxy-] displayed a flash point of -19.9 °C.

Compound `CCCOC(C)=O` [Propyl acetate] gave a flash point of 10.6 °C. The same measure, in the same setting: the value for `Cc1ccccn1` [Pyridine, 2-methyl-] was 26.0 °C.

Compound `Cc1ccncc1` [Pyridine, 4-methyl-] came in with a flash point of 39.0 °C.

For `Cc1ccccc1` [TOLUENE], the flash point was determined as 4.0 °C. Still for that read-out and setting: the value for `CCN(CC)CC` [TRIETHYLAMINE] was -15.0 °C; that for `Cc1ccccc1` [Toluene] was 6.0 °C. Still for that read-out and setting: the value for `CCCCCCCCCCCCC` [Tridecane] was 90.0 °C; that for `CCN(CC)CC` [Triethylamine] was -11.0 °C. `CCc1cccc(C)c1` [m-Ethyltoluene]: the flash point amounted to 38.0 °C.

With `CCC(C)N` (centres undefined) [sec-BUTYLAMINE], the flash point is -28.8 °C. `CCC(C)N` (centres undefined) [sec-Butylamine] gave a flash point of -18.9 °C.

This is another data set of the same source.
`C[Si](C)(C)CCOCCl` [[2-(chloromethoxy)ethyl]trimethylsilane]: the flash point is 46.00 °C.

Compound `CCO[Si](CCCS)(OCC)OCC` [[3-(mercapto)propyl]triethoxysilane] yielded a flash point of 87.78 °C. The same measure, in the same setting: in the case of `CCCC[Si](Cl)(Cl)Cl` [n-Butyltrichlorosilane] it was 54.00 °C; in that of `CCCCCCCCCC[Si](C)(Cl)Cl` [n-Decylmethyldichlorosilane], 120.00 °C; in that of `CCCCCCCCCCCC[Si](Cl)(Cl)Cl` [n-Dodecyltrichlorosilane], 162.00 °C. Consider `CCCCCCCC[Si](C)(C)Cl` [n-Octyldimethylchlorosilane], for which the flash point came out at 97.00 °C. Still for that read-out and setting: in the case of `CCCCCCCC[Si](Cl)(Cl)Cl` [n-Octyltrichlorosilane] it was 96.00 °C; in that of `CCC[Si](C)(Cl)Cl` [n-Propylmethyldichlorosilane], 27.00 °C.

Turning to `CCC[Si](OC)(OC)OC` [n-Propyltrimethoxysilane], the flash point is 25.00 °C. On the same count and under the same terms, the value for `C[Si](C)(C)c1ccc(Cl)cc1` [p-Chlorophenyltrimethylsilane] was 49.00 °C; that for `CCCC(C)[Si](Cl)(Cl)Cl` (centres undefined) [sec-Amyltrichlorosilane] was 30.00 °C. In turn, `CC(C)(C)O[Si](C)(C)C` [t-Butoxytrimethylsilane] displayed a flash point of 14.00 °C. Regarding `CC(C)(C)[Si](C)(C)Cl` [t-Butyldimethylchlorosilane], the flash point was determined as 22.00 °C. The same measure, in the same setting: the value for `CC(C)(C)[Si](C)(C)O` [t-Butyldimethylsilanol] was 45.00 °C; that for `CC(C)(C)[Si](Cl)(Cl)Cl` [t-Butyltrichlorosilane] was 21.00 °C.
